Reference: US11161854B2, “Indazolyl-spiro[2.2]pentane-carbonitrile derivatives as LRRK2 inhibitors, pharmaceutical compositions, and uses thereof” (Merck Sharp & Dohme Corp., priority 2017, dated 2021)

Molecular target: GST-tagged truncated human mutant G2019S LRRK2 (Homo sapiens (Human), UniProt Q5S007, G2019S)
Assay: LRRK2 G2019S Km ATP LanthaScreen Assay
Assay type: biochemical
Conditions: 134 μM ATP (Km ATP); fluorescein-labeled LRRKtide substrate; mean IC50 values
Protocol: The IC50 values reported herein were measured as follows.
Biological Assay: LRRK2 Km ATP LanthaScreen™ Assay
The data presented for the Km ATP LanthaScreen™ Assay represents mean IC50 values based on several test results and may have reasonable deviations depending on the specific conditions and reagents used. Assays were performed in the presence of 134 μM ATP (Km ATP). Upon completion, the assay was stopped and phosphorylated substrate detected with a terbium (Tb)-labeled anti-pERM antibody (cat. no. PV4898). The compound dose response was prepared by diluting a 10 mM stock of compound to a maximum concentration of […] in 100% dimethylsulfoxide followed by custom fold serial dilution in dimethylsulfoxide nine times. Twenty nanoliters of each dilution was spotted via a Labcyte Echo onto a 384-well black-sided plate (Corning 3575) followed by 15 μl of a 1.25 nM enzyme solution in 1× assay buffer (50 mM Tris pH 8.5, 10 mM MgCl2, 0.01% Brij-35, 1 mM EGTA, 2 mM dithiothreitol, 0.05 mM sodium orthovanadate). Following a 15-minute incubation at room temperature, the kinase reaction was started with the addition of 5 μl of 400 nM fluorescein-labeled LRRKtide peptide substrate and 134 μM ATP solution in 1× assay buffer. The reaction was allowed to progress at ambient temperature for 90 minutes. The reaction was then stopped by the addition of 20 μl of TR-FRET Dilution Buffer (Life Technologies, Carlsbad, Calif.) containing 2 nM Tb-labeled anti-phospho LRRKtide antibody and 10 mM EDTA (Life Technologies, Carlsbad, Calif.). After an incubation of 1 hour at room temperature, the plate was read on an EnVision multimode plate reader (Perkin Elmer, Waltham, Mass.) with an excitation wavelength of 337 nm (Laser) and a reading emission at both 520 and 495 nm. […] Abase uses a 4 parameter (4P) logistic fit based on the Levenberg-Marquardt algorithm.

Sequence of GST-tagged truncated human mutant G2019S LRRK2 (Q5S007 970-2527 G2019S): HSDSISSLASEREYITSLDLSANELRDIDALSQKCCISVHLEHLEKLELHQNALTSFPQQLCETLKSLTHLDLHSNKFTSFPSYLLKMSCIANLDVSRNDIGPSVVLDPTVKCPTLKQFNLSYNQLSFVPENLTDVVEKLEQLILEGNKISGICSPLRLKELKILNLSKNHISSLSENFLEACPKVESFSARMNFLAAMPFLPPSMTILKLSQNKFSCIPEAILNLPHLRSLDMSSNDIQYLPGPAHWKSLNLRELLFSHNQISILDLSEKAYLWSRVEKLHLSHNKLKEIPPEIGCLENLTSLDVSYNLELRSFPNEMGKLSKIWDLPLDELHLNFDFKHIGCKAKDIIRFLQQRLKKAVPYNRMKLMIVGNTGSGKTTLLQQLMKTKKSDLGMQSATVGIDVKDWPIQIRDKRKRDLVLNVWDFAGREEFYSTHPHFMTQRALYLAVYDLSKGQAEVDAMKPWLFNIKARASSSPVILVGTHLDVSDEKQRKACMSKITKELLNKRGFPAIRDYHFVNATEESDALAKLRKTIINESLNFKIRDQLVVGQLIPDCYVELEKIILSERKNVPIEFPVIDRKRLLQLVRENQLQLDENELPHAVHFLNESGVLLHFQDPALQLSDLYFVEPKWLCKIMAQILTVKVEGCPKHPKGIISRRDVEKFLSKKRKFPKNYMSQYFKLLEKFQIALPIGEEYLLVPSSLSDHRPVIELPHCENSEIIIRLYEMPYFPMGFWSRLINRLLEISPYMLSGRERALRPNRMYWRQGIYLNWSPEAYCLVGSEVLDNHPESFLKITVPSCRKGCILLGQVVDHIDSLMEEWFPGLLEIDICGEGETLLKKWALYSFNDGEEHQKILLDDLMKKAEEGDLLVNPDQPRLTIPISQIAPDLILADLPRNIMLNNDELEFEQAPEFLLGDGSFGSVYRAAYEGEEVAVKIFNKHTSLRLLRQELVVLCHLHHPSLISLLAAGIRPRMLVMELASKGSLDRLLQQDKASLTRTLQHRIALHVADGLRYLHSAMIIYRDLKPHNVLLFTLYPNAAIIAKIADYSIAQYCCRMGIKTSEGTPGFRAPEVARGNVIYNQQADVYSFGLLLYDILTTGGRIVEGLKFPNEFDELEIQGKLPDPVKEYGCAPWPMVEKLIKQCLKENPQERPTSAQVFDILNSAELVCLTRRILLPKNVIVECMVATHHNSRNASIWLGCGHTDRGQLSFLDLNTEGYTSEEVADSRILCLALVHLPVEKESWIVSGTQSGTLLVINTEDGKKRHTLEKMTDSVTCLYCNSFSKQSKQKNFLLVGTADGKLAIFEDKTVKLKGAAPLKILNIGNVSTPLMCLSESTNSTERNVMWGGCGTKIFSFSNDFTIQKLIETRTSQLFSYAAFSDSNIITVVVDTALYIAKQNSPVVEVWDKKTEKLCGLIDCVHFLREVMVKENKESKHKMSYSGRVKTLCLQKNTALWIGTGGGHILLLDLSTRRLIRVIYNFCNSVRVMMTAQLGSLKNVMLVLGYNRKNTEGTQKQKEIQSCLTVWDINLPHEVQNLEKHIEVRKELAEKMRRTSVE

| SMILES | IC50 [nM] |
| --- | --- |
| N#C[C@@]1(c2ccc3cnn(-c4cc(N5CC(O)C6(CC6)C5)ncn4)c3c2)CC12CC2 (single isomer, unassigned) [Example 3.11-2] | 1.4 |
| CC1C(C(C)(C)O)CCN1c1cc(-n2ncc3ccc([C@@]4(C#N)CC45CC5)cc32)ncn1 (single isomer, unassigned) [Example 3.5-3] | 1.9 |
| CC(C)(O)[C@@H]1CCN(c2cc(-n3ncc4cnc(C5(C#N)CC56CC6)cc43)ncn2)C1 (single isomer, unassigned) [Example 5.3-2] | 0.7 |
| CNc1nc(N2CC3(C(C)(C)O)CC2C3)cc(-n2ncc3ccc(C4(C#N)CC45CC5)cc32)n1 (single isomer, unassigned) [Example 2.7-1, 1-(1-(6-(4-(2-hydroxypropan-2-yl)-2-azabicyclo[2.1.1]hexan-2-yl)-2-(methylamino)pyrimidin-4-yl)-1H-indazol-6-yl)spiro[2.2]pentane-1-carbonitrile] | 3 |
| COCc1nc(C)cc(-n2ncc3ccc([C@]4(C#N)CC45CC5)cc32)n1 [Example 4.24] | 10.3 |
| COc1nc(N2CC3(C(C)(C)O)CC2C3)cc(-n2ncc3ccc(C4(C#N)CC45CC5)cc32)n1 (single isomer, unassigned) [Example 2.5-2, 1-(1-(6-(4-(2-hydroxypropan-2-yl)-2-azabicyclo[2.1.1]hexan-2-yl)-2-methoxypyrimidin-4-yl)-1H-indazol-6-yl)spiro[2.2]pentane-1-carbonitrile] | 0.8 |
| C[C@H]1CN(c2cc(-n3ncc4ccc([C@@]5(C#N)CC56CC6)cc43)ncn2)CCN1C1CCOC1 (single isomer, unassigned) [Example 3.8-1] | 1.6 |
| CC(C)(O)[C@@H]1CCN(c2cc(-n3ncc4ccc(C5(C#N)CC56CC6)cc43)ncn2)C1 (single isomer, unassigned) [Example 1.4-1, (R or S)-1-(1-(6-((R)-3-(2-hydroxypropan-2-yl)pyrrolidin-1-yl)pyrimidin-4-yl)-1H-indazol-6-yl)spiro[2.2]pentane-1-carbonitrile] | 1 |
| CC(C)(O)C12CC(C1)N(c1cc(-n3ncc4cnc(C5(C#N)CC56CC6)cc43)ccn1)C2 (single isomer, unassigned) [Example 6.7-1, 1-(1-(2-(4-(2-hydroxypropan-2-yl)-2-azabicyclo[2.1.1]hexan-2-yl)pyridin-4-yl)-1H-pyrazolo[4,3-c]pyridin-6-yl)spiro[2.2]pentane-1-carbonitrile] | 59 |
| CC(C)(O)C12CC(C1)N(c1cc(-n3ncc4ccc([C@@]5(C#N)CC56CC6)cc43)ccn1)C2 [Example 6.1-2] | 5.3 |
| COCc1nc(N2C[C@@H](C)[C@@](C)(O)[C@@H](C)C2)cc(-n2ncc3ccc([C@]4(C#N)CC45CC5)cc32)n1 [Example 3.3] | 1 |
| N#C[C@@]1(c2ccc3cnn(-c4cc(C5CCN(C6COC6)CC5)ncn4)c3c2)CC12CC2 [Example 4.18] | 18.7 |
| COC1(C(C)(C)O)CCN(c2cc(-n3ncc4ccc([C@@]5(C#N)CC56CC6)cc43)ncn2)C1 (single isomer, unassigned) [Example 3.10-3] | 3.1 |
| CC(C)(O)[C@@H]1CCN(c2cc(-n3ncc4cnc(C5(C#N)CC56CC6)cc43)ncn2)C1 (single isomer, unassigned) [Example 5.3-1] | 7.5 |
| C[C@@H]1CN(c2cc(-n3ncc4ccc([C@]5(C#N)CC56CC6)cc43)ncn2)C[C@H](C)N1C1COC1 [Example 4.1] | 0.6 |
| CC1C(C(C)(C)O)CCN1c1cc(-n2ncc3ccc([C@@]4(C#N)CC45CC5)cc32)ncn1 (single isomer, unassigned) [Example 3.5-5] | 27.6 |
| CC(C)(O)C12CC(C1)N(c1cc(-n3ncc4cc(F)c(C5(C#N)CC56CC6)cc43)ncn1)C2 (single isomer, unassigned) [Example 5.5-1, 1-(5-fluoro-1-(6-(4-(2-hydroxypropan-2-yl)-2-azabicyclo[2.1.1]hexan-2-yl)pyrimidin-4-yl)-1H-indazol-6-yl)spiro[2.2]pentane-1-carbonitrile] | 3.9 |
| CS(=O)(=O)N1CCN(c2cc(-n3ncc4ccc([C@]5(C#N)CC56CC6)cc43)ccn2)CC1 [Example 4.14] | 2.8 |
| N#CC1(c2ccc3cnn(-c4cc(N5CC6(CCOC6)C5)ncn4)c3c2)CC12CC2 (stereo not shown) [Example 1.5] | 0.9 |

| SMILES | IC50 [nM] |
| --- | --- |
| CC(C)(O)C12CC(C1)N(c1cc(-n3ncc4ccc(C5(C#N)CC56CC6)cc43)ccn1)C2 (single isomer, unassigned) [Example 6.1, (R or S)-1-(1-(2-(4-(2-hydroxypropan-2-yl)-2-azabicyclo[2.1.1]hexan-2-yl)pyridin-4-yl)-1H-indazol-6-yl)spiro[2.2]pentane-1-carbonitrile] | 1.2 |
| C[C@H]1CN(c2cc(-n3ncc4ccc([C@]5(C#N)CC56CC6)cc43)ncn2)CCN1S(C)(=O)=O [Example 4.8] | 1.2 |
| COCc1nc(N2C[C@@H](C)N(C3COC3)[C@@H](C)C2)cc(-n2ncc3ccc([C@]4(C#N)CC45CC5)cc32)n1 [Example 4.6] | 0.9 |
| CC(C)(O)[C@@H]1CCN(c2cc(-n3ncc4cnc(C5(C#N)CC56CC6)cc43)ccn2)C1 (single isomer, unassigned) [Example 6.6-1] | 28.5 |
| Cc1nc(N2CC3(C(C)(C)O)CC2C3)cc(-n2ncc3cc(F)c(C4(C#N)CC45CC5)cc32)n1 (single isomer, unassigned) [Example 5.6-2, 1-(5-fluoro-1-(6-(4-(2-hydroxypropan-2-yl)-2-azabicyclo[2.1.1]hexan-2-yl)-2-methylpyrimidin-4-yl)-1H-indazol-6-yl)spiro[2.2]pentane-1-carbonitrile] | 1.3 |
| CC(C)(O)C12CC(C1)N(c1cc(-n3ncc4c(F)cc(C5(C#N)CC56CC6)cc43)ncn1)C2 (single isomer, unassigned) [Example 4.15-2] | 2.3 |
| CC(C)(O)[C@@H]1CN(c2cc(-n3ncc4ccc([C@]5(C#N)CC56CC6)cc43)ncn2)C[C@@H]1F [Example 4.12-2] | 0.6 |
| Cc1cc(-n2ncc3ccc([C@]4(C#N)CC45CC5)cc32)nc(N)n1 [Example 4.19] | 0.6 |
| CC1C(C(C)(C)O)CCN1c1cc(-n2ncc3ccc([C@@]4(C#N)CC45CC5)cc32)ncn1 (single isomer, unassigned) [Example 3.5-4] | 0.6 |
| C[C@H]1CN(c2cc(-n3ncc4ccc(C5(C#N)CC56CC6)cc43)ncn2)CCN1C1COC1 (single isomer, unassigned) [Example 3.1, (R or S)-1-(1-(6-((S)-3-methyl-4-(oxetan-3-yl)piperazin-1-yl)pyrimidin-4-yl)-1H-indazol-6-yl)spiro[2.2]pentane-1-carbonitrile] | 0.6 |
| CC(C)(O)C12CC(C1)N(c1cc(-n3ncc4cnc(C5(C#N)CC56CC6)cc43)ncn1)C2 (single isomer, unassigned) [Example 5.2-2, 1-(1-(6-(4-(2-hydroxypropan-2-yl)-2-azabicyclo[2.1.1]hexan-2-yl)pyrimidin-4-yl)-1H-pyrazolo[4,3-c]pyridin-6-yl)spiro[2.2]pentane-1-carbonitrile] | 1.7 |
| CC(C)(O)C1CN(c2cc(-n3ncc4ccc([C@]5(C#N)CC56CC6)cc43)ncn2)CCO1 (single isomer, unassigned) [Example 4.3-1, 1-(1-(6-(2-(2-hydroxypropan-2-yl)morpholino)pyrimidin-4-yl)-1H-indazol-6-yl)spiro[2.2]pentane-1-carbonitrile] | 1.8 |
| C[C@@H]1CN(c2cc(-n3ncc4ccc([C@]5(C#N)CC56CC6)cc43)ncn2)CCN1C1COC1 [Example 3.1-2] | 0.6 |
| CC(C)(O)C12CC(C1)N(c1cc(-n3ncc4cnc(C5(C#N)CC56CC6)cc43)ccn1)C2 (single isomer, unassigned) [Example 6.7-2, 1-(1-(2-(4-(2-hydroxypropan-2-yl)-2-azabicyclo[2.1.1]hexan-2-yl)pyridin-4-yl)-1H-pyrazolo[4,3-c]pyridin-6-yl)spiro[2.2]pentane-1-carbonitrile] | 7.8 |
| C[C@@H]1CN(c2cc(-n3ncc4ccc([C@@]5(C#N)CC56CC6)cc43)ncn2)CCN1C1CCOC1 (single isomer, unassigned) [Example 3.7-3] | 9 |
| CC(C)(O)[C@@H]1CCN(c2cc(-n3ncc4cc(F)c(C5(C#N)CC56CC6)cc43)ncn2)C1 (single isomer, unassigned) [Example 5.7-2] | 2.6 |
| C[C@H]1CN(c2cc(-n3ncc4ccc([C@]5(C#N)CC56CC6)cc43)ccn2)CCN1S(C)(=O)=O [Example 6.5] | 1.5 |
| Cc1nc(N2CC3(C(C)(C)O)CC2C3)cc(-n2ncc3cc(F)c(C4(C#N)CC45CC5)cc32)n1 (single isomer, unassigned) [Example 5.6-1, 1-(5-fluoro-1-(6-(4-(2-hydroxypropan-2-yl)-2-azabicyclo[2.1.1]hexan-2-yl)-2-methylpyrimidin-4-yl)-1H-indazol-6-yl)spiro[2.2]pentane-1-carbonitrile] | 20.9 |
